Data: paper PMC10272563, “Novel gold(III)-dithiocarbamate complex targeting bacterial thioredoxin reductase: antimicrobial activity, synergy, toxicity, and mechanistic insights” (Frontiers in Microbiology, 2023)
Like-named read-outs stand apart in the source and are kept apart here.

Legend:
[1] = molecular target: T1, E. coli TrxR (thioredoxin reductase) (Escherichia coli, UniProt P0A9P4); design: gene trxB
[2] = molecular target: T1, E. coli TrxR (thioredoxin reductase); assay: Trx-coupled DTNB reduction assay, purified recombinant enzyme; activity recovered after desalting; format: biochemical; design: gene trxB; GenBank PSY25180.1, residues 1–321, His6-SUMO tag removed

T1 sequence (P0A9P4 whole entry, the tested form may be a part): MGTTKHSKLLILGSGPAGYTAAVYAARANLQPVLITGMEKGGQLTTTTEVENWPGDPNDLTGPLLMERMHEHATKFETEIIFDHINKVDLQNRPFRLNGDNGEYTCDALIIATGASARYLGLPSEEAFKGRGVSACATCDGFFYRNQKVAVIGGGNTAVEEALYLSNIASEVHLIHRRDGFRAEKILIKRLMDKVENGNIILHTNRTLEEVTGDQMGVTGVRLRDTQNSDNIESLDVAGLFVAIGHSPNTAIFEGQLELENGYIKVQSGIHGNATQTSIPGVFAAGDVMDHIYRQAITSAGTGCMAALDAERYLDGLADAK
T1 sequence (P0AA25 whole entry, further chain, the tested form may be a part): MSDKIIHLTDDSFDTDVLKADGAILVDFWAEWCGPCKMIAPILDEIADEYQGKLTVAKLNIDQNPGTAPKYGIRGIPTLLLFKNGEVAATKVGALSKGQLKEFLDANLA

Compound	IC50 [1]	IC50 [2]
CC[P](CC)(CC)=[Au][S][C@@H]1O[C@H](COC(C)=O)[C@@H](OC(C)=O)[C@H](OC(C)=O)[C@H]1OC(C)=O [auranofin]	1110 nM	–
[Au(dppta)(mrdtc)][PF6] [compound 2]	–	1920 nM
[Au(dppta)Cl2] [compound 1]	–	1330 nM
